Assay results taken from paper PMC4926143 (Toxins, 2016).
≈ marks a conversion by molar mass, not a printed value. Entries after “also recorded” stand apart in the source; their conditions may differ. Where two headings read alike, the source gives them in different places.

What was measured:
[1] = test system: Aspergillus flavus IMF 47798; format: cell-based
[2] = test system: Aspergillus flavus IMF 47798; format: cell-based; remark: listed apart in the source
aflR and pksA mRNA = assay: RT-qPCR of aflR and pksA mRNA levels in A. flavus; format: cell-based, Aspergillus flavus; conditions: 0.05 mM, normalized to β-tubulin mRNA
Method: To test the effects of three octyl esters on the mRNA levels of aflR and pksA, A. flavus was cultured with octyl syringate (8), octyl paraben (12), or octyl gallate (14) at the concentrations of 0.05 mM. Subsequently, aflR and pksA mRNA levels were examined by quantitative PCR.
The lyophilized mycelia were ground under liquid nitrogen using a mortar and pestle. Total RNA was extracted with TRIzol reagent (Thermo Fisher Scientific, Waltham, MA, USA) and purified with the PureLink RNA Mini Kit (Thermo Fisher Scientific), according to manufacturer’s protocol. The cDNA was prepared with the ReverTra Ace qPCR RT Master Mix (TOYOBO, Osaka, Japan), according to manufacturer’s protocol. The cDNA derived from 0.05 μg of total RNA was used as a qPCR template. qPCR was carried out using FastStart Universal SYBR Green Master (Rox) (Roche, Basel, Switzerland) in a final volume of 25 μL for each reaction and an ABI 7300 Real-Time PCR System (Thermo Fisher Scientific). Two-step PCR conditions were as follows: after an initial incubation at 95 °C for 10 min, 40 cycles of 95 °C for 15 s and 60 °C for 1 min were performed. The amount of aflR and pksA mRNA were normalized to the amount of β-tubulin mRNA (control gene) in each sample. PCR primers used for each gene were as follows: β-tubulin 5′-[…]-3′ and 5′-[…]-3′; AflR 5′-[…]-3′ and 5′-[…]-3′; pksA 5′-[…]-3′ and 5′-[…]-3′.

[3] = molecular target: T1, bovine heart mitochondrial complex II (Bos taurus, UniProt P31039+P35720+Q3T189+Q95123); assay: MitoCheck Complex II Activity Assay (succinate dehydrogenase activity); format: biochemical; conditions: bovine heart mitochondria
T1 construct: bovine heart mitochondrial complex II; purchased Cayman Chemical; host or cells: bovine heart mitochondria (native tissue preparation supplied in the kit)

aflatoxin production = conditions: cited from earlier work
A. flavus = conditions: cited from earlier work
A. flavus ATCC 9170 = test system: A. flavus ATCC 9170; design: method as in PMID 19232493; conditions: cited from earlier work
[4] = read-out: IC50, mitochondrial complex II

T1 sequence (P31039 44-665): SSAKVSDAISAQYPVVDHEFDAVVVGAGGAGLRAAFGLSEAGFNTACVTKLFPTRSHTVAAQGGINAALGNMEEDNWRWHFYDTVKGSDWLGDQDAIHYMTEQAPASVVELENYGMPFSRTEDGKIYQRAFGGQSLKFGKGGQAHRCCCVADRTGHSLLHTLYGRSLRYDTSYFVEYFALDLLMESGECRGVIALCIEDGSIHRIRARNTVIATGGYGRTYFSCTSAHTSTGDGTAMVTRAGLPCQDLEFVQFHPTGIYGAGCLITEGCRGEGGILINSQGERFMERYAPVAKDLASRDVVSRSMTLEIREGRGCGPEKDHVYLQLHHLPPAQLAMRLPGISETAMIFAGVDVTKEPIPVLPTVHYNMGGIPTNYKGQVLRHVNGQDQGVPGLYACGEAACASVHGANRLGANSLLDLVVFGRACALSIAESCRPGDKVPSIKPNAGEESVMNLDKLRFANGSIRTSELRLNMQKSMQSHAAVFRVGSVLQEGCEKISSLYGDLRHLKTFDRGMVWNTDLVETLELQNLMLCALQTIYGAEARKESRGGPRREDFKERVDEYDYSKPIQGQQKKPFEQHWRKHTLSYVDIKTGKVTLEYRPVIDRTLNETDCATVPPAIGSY
T1 sequence (Q3T189 29-280): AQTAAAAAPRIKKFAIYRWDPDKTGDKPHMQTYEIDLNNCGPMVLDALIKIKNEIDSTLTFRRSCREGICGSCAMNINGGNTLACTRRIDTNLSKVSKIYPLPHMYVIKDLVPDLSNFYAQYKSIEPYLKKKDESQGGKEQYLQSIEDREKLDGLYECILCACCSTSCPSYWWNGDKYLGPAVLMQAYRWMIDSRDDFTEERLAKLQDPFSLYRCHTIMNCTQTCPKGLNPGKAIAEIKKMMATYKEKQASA
T1 sequence (P35720 30-169): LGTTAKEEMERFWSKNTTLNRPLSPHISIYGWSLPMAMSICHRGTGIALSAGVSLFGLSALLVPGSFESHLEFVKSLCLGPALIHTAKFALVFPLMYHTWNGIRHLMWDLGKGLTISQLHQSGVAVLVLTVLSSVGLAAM
T1 sequence (Q95123 56-158): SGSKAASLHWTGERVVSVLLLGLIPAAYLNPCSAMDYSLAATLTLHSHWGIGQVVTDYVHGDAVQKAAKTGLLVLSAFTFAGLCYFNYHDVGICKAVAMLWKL

Compound: CCOC(=O)c1ccc(O)cc1 [compound 9, ethyl paraben]
- aflatoxin production inhibitory activity (comparison in words) [1]: weak

Compound: CCCCCCCCOC(=O)c1cc(OC)c(O)c(OC)c1 [compound 8, Octyl syringate]
- inhibition of aflatoxin production [1]: inhibited aflatoxin production very strongly
- fungal mycelial weight after five and six days of cultivation [2]: without changing
- aflR mRNA level (aflR and pksA mRNA): None of the three octyl esters affected
- pksA mRNA level (aflR and pksA mRNA): None of the three octyl esters affected
- IC50 [3, 4]: 340 µM

Compound: O=C(Nc1ccccc1-c1ccc(Cl)cc1)c1cccnc1Cl [boscalid]
- IC50 [3, 4]: 19 µM
- inhibition of aflatoxin production by complex II inhibitors (aflatoxin production): inhibited aflatoxin production with selectivity
- IC50 (aflatoxin production; read-out: IC50 of aflatoxin production inhibition): < 0.01 µM

Compound: CCCCCOC(=O)c1cc(OC)c(O)c(OC)c1 [compound 5, pentyl syringate]
- inhibition of aflatoxin production [1]: inhibited aflatoxin production very strongly
- IC50 [3, 4]: 2800 µM

Compound: CCCCOC(=O)c1cc(OC)c(O)c(OC)c1 [compound 4, butyl syringate]
- inhibition of aflatoxin production [1]: strong inhibitory activity
- IC50 [3, 4]: 9700 µM

Compound: Cc1ccccc1C(=O)Nc1cccc(OC(C)C)c1 [mepronil]
- inhibition of aflatoxin production by complex II inhibitors (aflatoxin production): inhibited aflatoxin production with selectivity

Compound: Cc1cc(O)c2c(c1)O[C@@]1(C)CC[C@H]3C(C)(C)CCC[C@]34CO[C@@H]2[C@H]41 [siccanin]
- inhibition of aflatoxin production by complex II inhibitors (aflatoxin production): inhibited aflatoxin production with selectivity

Compound: CCCCCCCOC(=O)c1cc(OC)c(O)c(OC)c1 [compound 7, heptyl syringate]
- inhibition of aflatoxin production [1]: inhibited aflatoxin production very strongly
- IC50 [3, 4]: 1300 µM

Compound: CCOC(=O)c1cc(OC)c(O)c(OC)c1 [compound 2, Ethyl syringate]
- inhibition of aflatoxin production [1]: did not inhibit aflatoxin production
- IC50 ([3]; highest concentration 20 mM, read-out: IC50, mitochondrial complex II (symbol)): > 20000 µM

Compound: CCCCCCOC(=O)c1cc(OC)c(O)c(OC)c1 [compound 6, hexyl syringate]
- inhibition of aflatoxin production [1]: inhibited aflatoxin production very strongly
- IC50 [3, 4]: 1100 µM

Compound: CCCOC(=O)c1ccc(O)cc1 [compound 10, Propyl paraben]
- inhibition of aflatoxin production on a solid culture (A. flavus): inhibit aflatoxin production
- aflatoxin production inhibitory activity (comparison in words) [1]: more strongly than propyl syringate (3) and propyl gallate (15); also recorded: much weaker than that of heptyl paraben (11) and octyl paraben (12)
- IC50 [3, 4]: > 20000 µM

Compound: COc1[nH]c(=O)c(C(=O)[C@@H](C)C[C@H](C)[C@@H](Cl)CCl)c(O)c1OC [atpenin A5]
- inhibition of aflatoxin production by complex II inhibitors (aflatoxin production): inhibited aflatoxin production with selectivity

Compound: CCCCCCCCOC(=O)c1cc(O)c(O)c(O)c1 [compound 14, Octyl gallate]
- aflatoxin production inhibitory activity after five and six days of cultivation [1]: maintained
- inhibition of aflatoxin production [1]: as strongly as octyl syringate (8) and octyl paraben (12); also recorded: strongly inhibited
- effect on fungal growth [2]: did not affect fungal growth
- effect on mycelial weight [2]: reduced the mycelial weight
- aflR mRNA level (aflR and pksA mRNA): None of the three octyl esters affected
- pksA mRNA level (aflR and pksA mRNA): None of the three octyl esters affected
- IC50 [3, 4]: 290 µM
- minimum inhibitory concentration (MIC) (A. flavus ATCC 9170): 63 µM (≈ 17.8 µg/mL)

Compound: CCCOC(=O)c1cc(OC)c(O)c(OC)c1 [compound 3, propyl syringate]
- inhibition of aflatoxin production [1]: did not inhibit aflatoxin production
- IC50 [3, 4]: > 20000 µM

Compound: CCCCCCCCOC(=O)c1ccc(O)cc1 [compound 12, octyl paraben]
- aflatoxin production inhibitory activity (comparison in words) [1]: strong
- effect on fungal growth [2]: did not affect fungal growth
- aflR mRNA level (aflR and pksA mRNA): None of the three octyl esters affected
- pksA mRNA level (aflR and pksA mRNA): None of the three octyl esters affected
- IC50 [3, 4]: 160 µM

Compound: CCCCCCCOC(=O)c1ccc(O)cc1 [compound 11, heptyl paraben]
- aflatoxin production inhibitory activity after five and six days of cultivation [1]: maintained
- inhibition of aflatoxin production [1]: strong
- effect on fungal growth [2]: did not affect fungal growth
